Consider one molecule from patent publication US8003659B2, “Macrocyclic serine protease inhibitors” (Indenix Pharmaceuticals, Inc., priority 2008, dated 2011).

For data set [1] the following is noted: from C=CCCCCN(C)C(=O)[C@@H]1C[C@H](Oc2cc(-c3nc(C(C)C)cs3)nc3c(Cl)c(OC)ccc23)CN1C(=O)N[C@]1(C(=O)NS(=O)(=O)C2CC2)C[C@H]1C=C; rcm bond; 14-membered ring; Zhan 1B (2%); DCE; 5.0 mM; 75.0 °C; 0.75 h.
Data set [2] in a line: Cytotoxicity (CC50) in the genotype 1b replicon assay. Format: cell-based. Conditions: human, GS4.1 cells; genotype 1b replicon assay as described in Example 32. Here is the method:
For cytotoxicity evaluation, GS4.1 cells were treated with compounds as described above and cellular viability was monitored using the Cell Titer 96 AQueous One Solution Cell Proliferation Assay (Promega). CC50 values were determined from the % cytotoxicity versus concentration data with Tecan Magellan software as described above.
Compounds were tested in a genotype 1b replicon assay as described in Example 32 and the results are summarized in Table 6, wherein A represents a value smaller than 1 μM, and B represents a value between 1 μM to 10 μM, C represents a value between 10 μM to 75 μM and D represents a value greater than 75 μM.

In data set [3] the test system is HCV genotype 2a infectious virus. The data set is described as follows: HCV genotype 2a infectious virus assay. Format: cell-based, HCV (strain JFH-1; genotype 2a). Conditions: Hepatitis C virus. Here is the method:
Compounds were tested in a HCV genotype 2a infectious virus assay and the results are summarized in Table 7, wherein A represents a value smaller than 1 μM, and B represents a value between 1 μM to 10 μM, C represents a value between 10 μM to 75 μM and D represents a value greater than 75 μM.
The HCV in vitro infection core ELISA assay measures the ability of a test compound to inhibit replication of an infectious HCV (strain JFH-1; genotype 2a) in cell culture. […] We have developed this model for determining the efficacy of antiviral compounds against an infectious virus in vitro using HCV producing cells (HPC), a proprietary Huh-7-derived cell sublineage capable of propagating the JFH-1 HCV virus. The readout of the assay is quantification of HCV core protein by ELISA 5 days post infection with JFH-1 virus and treatment with a test compound.
Ninety-six-well Corning Costar plates were seeded with HPC cells at a density of 3.0×10^3 cells per well in 50 μL of Huh-7 media. Compound stock solutions were made up freshly in Huh-7 media (DMEM (containing glucose, L-glutamine and sodium pyruvate), 10% FBS, 100 IU/mL penicillin, 100 μg/mL streptomycin, 2 mM GlutaMAX, 1% MEM non-essential amino acids) as 2× stock. Seven additional 3-fold drug dilutions were prepared from the 2× stocks in Huh-7 media. At least 4 hours after HPC cells were seeded, the media in the 96-well culture plates was aspirated and 50 μL of each drug dilution and 50 μL of JFH-1 HCV was added to each well.
At 16 hrs post treatment and infection, the virus inoculum was removed by aspiration. The cultures were treated at the same final concentrations of drug diluted to 1× in Huh-7 media to a final volume of 200 μL. Cells were incubated in the presence of drug for 4 additional days at 37° C./5% CO2.
Media was removed from the plates by aspiration. Cells were fixed with 250 μL 1:1 acetone:methanol for 90 seconds, washed once in PBS and then three times with 1×KPL wash solution. The assay plates were then blocked with 150 μL/well 10% FBS-TNE (50 mM Tris-HCl (pH 7.5; Sigma), 100 mM NaCl, 1 mM EDTA with 10% FBS) for 1 hr at room temperature. Cells were washed three times with 1×KPL wash solution and incubated with 100 μL/well anti-hepatitis C core mAb (1 mg/mL stock diluted 1:500 in 10% FBS-TNE) for 2 hours at 37° C. Cells were washed three times with 1×KPL wash solution and incubated with 100 μL/well HRP-goat anti-mouse antibody (diluted 1:2,500 in 10% FBS-TNE) for 1 hr at 37° C.
OPD solution was prepared using 1 OPD tablet+12 mL citrate/phosphate buffer (16 mM citric acid, 27 mM Na2HPO4) plus 5 μL 30% H2O2 per plate. Cells were washed three times with 1×KPL wash solution and developed with 100 μL/well OPD solution for 30 minutes in the dark at room temperature. The reaction was stopped with 100 μL/well of 2NH2SO4, and absorbance measured at A490 nm in a Victor^3 V 1420 multilabel counter (Perkin Elmer). The EC50 values for each compound were calculated from dose response curves from the resulting best-fit equations determined by Microsoft Excel and XLfit 4.1 software. The negative control for inhibition of virus replication was untreated HPC cells infected with the JFH-1 HCV virus strain. The negative ELISA control was untreated, uninfected HPC cells. The positive ELISA control was untreated HPC cells infected the JFH-1 HCV virus strain.

For data set [4], the system named is mutant protease D168A. Nature of the data set: Resistance profile, mutant protease D168A. The format is biochemical, HCV. Conditions: ratio of inhibitory activity against mutant enzyme over non-mutant enzyme. Here is the method: General procedure: Measurement of the inhibitory effect of compounds on HCV protease activity was performed with the SensoLyte™ 620 HCV Protease Assay kit from AnaSpec, Inc. (San Jose, Calif.) under conditions described by the supplier using 1.2 nM HCV NS3-NS4A protease, which was obtained according to Taremi et al. (Protein Science, 1998, 7, 2143-2149). The compounds were tested at a variety of concentrations in assay buffer containing a final DMSO concentration of 5%. Reactions were allowed to proceed for 60 min at room temperature and fluorescence measurements were recorded with a Tecan Infinity Spectrofluorimeter. The IC50 values were determined from the percent inhibition versus concentration data using a sigmoidal non-linear regression analysis based on four parameters with Tecan Magellan software.
Compounds were evaluated against three mutant proteases R155Q, A156S, and D168A, as summarized in Table 8, wherein A represents a value smaller than 1, and B represents a value between 1 to 10, and C represents a value greater than 10. The fold of change in inhibitory activity was determined by measuring the ratio of the inhibitory activity of a compound against a mutant enzyme over the inhibitory activity of the same compound against non-mutant enzyme. The inhibitory activity was determined using the procedure as described in Example 31.

A word on the CC50: it is the concentration giving 50% cytotoxicity. Broadly, the EC50 is the concentration at which the effect is half-maximal.

On to `COc1ccc2c(O[C@H]3C[C@H]4C(=O)N(C)CCCC/C=C\[C@@H]5C[C@@]5(C(=O)NS(=O)(=O)C5CC5)NC(=O)N4C3)cc(-c3nc(C(C)C)cs3)nc2c1Cl` [Compound 62d, (Z)-(4R,6S,15S,17S)-[17-[8-chloro-7-methoxy-2-(4-isopropylthiazol-2-yl)quinolin-4-yloxy]-13-N-methyl-2,14-dioxo-1,3,13-triazatricyclo[13.3.0.0]octadec-7-en-4-yl]carbonyl(cyclopropyl)sulfonamide], for which the ring closure, isolated yield in data set [1] was 63%. Further, the CC50 in data set [2] was 10 to 75 µM. Also, the EC50 in data set [3] is < 1 µM. For the same molecule, in data set [4], the “Fold-Change D168A” value is “C (C represents a value greater than 10)”.
